The text below walks through data of patent US11484483B2, “Topical lotion having sanitizing properties” (Shear Kershman Laboratories, Inc, priority 2020, dated 2022).

The subject of this test is E. coli strain 25922. Kind of test: Efficacy Study of E. coli Strain 25922 (coupon touch transfer to TSA plate). It counts as cell-based. The conditions noted are these: 60 s contact time, Rep 1 and 2. The procedure:
On a coupon, 0.05 mL of the inocula (E. coli strain 25922) was added to the center of each test coupon and left to dry. Using a sterile glove, 0.05 grams of the test lotion was mechanically rubbed onto the test coupon to mimic rubbing hand sanitizer onto the skin of hands. There was a contact time of either 60 seconds or 4 hours allowed to lapse prior to placing the coupon touch transfer to the trypticase soy agar (TSA) plate. The coupon was then placed onto the TSA plate and allowed contact for 15 seconds in 3 different locations. The plates were then incubated for 24 hours at 37° C.

Where [1] appears, read: 0.05 grams lotion on inoculated coupon, TNTC = Too Numerous to Count.

For `CC(C)O` [Control 17, isopropyl alcohol], under setting [1], the “Placement 1/CFU” value stood at 0 CFU, the “Placement 2/CFU” value was determined as 0 CFU and the “Placement 3/CFU” value came out at 0 CFU. Moreover, the “Log Reduction” value (Criteria ~5 Log Reduction in 60 sec.) is 6 Log.
